One data set has as its system xylem. The experiment in a line: Phytoinjector delivery to xylem of tomato, dye transport.
For the next data set, the system named is petiole's xylem. The experiment in a line: Luciferin-luciferase bioluminescent reaction after phytoinjector delivery into petiole xylem. Format: in vivo, tomato (Solanum lycopersicum). Conditions: luciferin in petiole's xylem; other reagents by foliar infiltration.

Consider two molecules from US20230143553A1, “PRECISION DELIVERY OF MULTI-SCALE PAYLOADS TO TISSUE-SPECIFIC TARGETS IN PLANTS” (MASSACHUSETTS INSTITUTE OF TECHNOLOGY, priority 2020, published 2023).

Excerpt for petiole's xylem: The phytoinjectors were applied in petiole vasculature near the leaflet to facilitate observation and imaging. At first, luciferin was deployed in the petiole's xylem while the other reagents were delivered by foliar infiltration to the leaf.

Turning to 5(6)-carboxyfluorescein diacetate, in the data set on xylem, the “transport distance upstream of injection site” value is reported as 1 cm. In the data set on xylem (from root to leaves), the “transport distance downstream of injection site” value is reported as “more than 7 cm”. With `O=C(O)[C@H]1CSC(c2nc3ccc(O)cc3s2)=N1` [luciferin], the “luminescence of leaf tissue after delivery” value in the data set with petiole's xylem was “showed luminescence”.
